Assay results from patent US20260276636A1, “METHOD FOR SPECIFIC AND RAPID QUANTIFICATION OF THE TOTAL VIABLE BACTERIAL COUNT IN RAW MILK” (National Institute of Metrology, priority 2023, published 2026).

Experiments:
[1] = tested on: B. subtilis; test: Minimum inhibitory concentration (MIC) assay; format: cell-based, Bacillus subtilis; conditions: 96-well plate, 37° C., 48 h; ATCC 6633
Protocol: (§1) • 1. Culture of bacterial strains. After the four bacterial strains were activated on a nutrient agar plate, a single colony was picked, inoculated to TSB medium (10 g/L peptone, 3 g/L beef extract powder, and 5 g/L sodium chloride), incubated at 37° C. for 6 h to the mid-logarithmic stage, and then centrifuged at 8000 rpm for 5 min to collect the bacterial cells. The collected bacterial cells were suspended in fresh TSB medium at a bacterial suspension concentration of approximately 10^7 cells/mL. • 2. Antibiotics. […] Antibiotics were purchased from Shanghai Yuanye Biotechnology Co., Ltd. An appropriate amount of antibiotics was weighed and dissolved in DSMO to prepare a stock solution of a cell division inhibitor, which was stored in the dark at −20° C. • 3. Minimum inhibitory concentration (MIC) assay. The above four bacterial suspensions were plated in a 96-well plate, to which antibiotics were added at final concentrations of […], and then incubated at 37° C. for 48 h. Bacterial growth was analyzed using a microplate reader, and the smallest concentration of antibiotics that could inhibit the growth of bacteria was defined as the minimum inhibitory concentration. • 4. Evaluation of inhibitory effect on bacterial division. […] After centrifugation at 8000 rpm, the bacterial cells were collected and resuspended in the PBS buffer, and the changes in the number of bacteria in the sample were analyzed using the forward scatter signals on the flow cytometer. • 5. Detection of bacterial viability. […] SYTO9 labeled all bacteria in green and PI labeled dead bacteria in red. The above labeling system was left at room temperature for 30 min in the dark, washed and centrifuged with PBS twice, and the percentages of viable and dead bacteria were analyzed using a flow cytometer. Measurement and analysis were performed using an Apogee A50 flow cytometer. At an excitation wavelength of 488 nm, a flow rate of 3-25 μL/min and a detection time of 10-100 s, the total number of bacteria was analyzed in the green fluorescence channel, and the number of dead bacteria was analyzed in the red fluorescence channel.

[2] = tested on: four species of bacteria (B. subtilis, E. coli, S. aureus, L. lactis); test: Evaluation of inhibitory effect on bacterial division (flow cytometry); format: cell-based; conditions: 1 μg/mL, 2 h of treatment, compared to blank control; FIG. 7
Protocol: (§2) • 1. Culture of bacterial strains. After the four bacterial strains were activated on a nutrient agar plate, a single colony was picked, inoculated to TSB medium (10 g/L peptone, 3 g/L beef extract powder, and 5 g/L sodium chloride), incubated at 37° C. for 6 h to the mid-logarithmic stage, and then centrifuged at 8000 rpm for 5 min to collect the bacterial cells. The collected bacterial cells were suspended in fresh TSB medium at a bacterial suspension concentration of approximately 10^7 cells/mL. • 2. Antibiotics. […] Bacterial growth was analyzed using a microplate reader, and the smallest concentration of antibiotics that could inhibit the growth of bacteria was defined as the minimum inhibitory concentration. • 4. […] After centrifugation at 8000 rpm, the bacterial cells were collected and resuspended in the PBS buffer, and the changes in the number of bacteria in the sample were analyzed using the forward scatter signals on the flow cytometer. • 5. […] The above labeling system was left at room temperature for 30 min in the dark, washed and centrifuged with PBS twice, and the percentages of viable and dead bacteria were analyzed using a flow cytometer. […]

[3] = tested on: E. coli; test: Minimum inhibitory concentration (MIC) assay; format: cell-based, Escherichia coli; conditions: 96-well plate, 37° C., 48 h; ATCC 10798
Protocol: as §1

[4] = tested on: S. aureus; test: Minimum inhibitory concentration (MIC) assay; format: cell-based, Staphylococcus aureus; conditions: 96-well plate, 37° C., 48 h; ATCC 29213
Protocol: as §1

[5] = tested on: L. lactis; test: Minimum inhibitory concentration (MIC) assay; format: cell-based, Lactococcus lactis; conditions: 96-well plate, 37° C., 48 h; ATCC 19257
Protocol: as §1

[6] = tested on: Staphylococcus aureus; conditions: 2 h
Protocol: as §2

[7] = tested on: Staphylococcus aureus; test: Specific labeling in mixed samples, fluorescence microscopy; format: cell-based; conditions: 500 μM, 37° C., 6 h, mixed with yeast or cow leukocytes; FIG. 6
Protocol: (§3) • 1. Activation of bacterial strain. After Staphylococcus aureus was activated on a nutrient agar plate, a single colony was picked, inoculated to TSB medium (10 g/L peptone, 3 g/L beef extract powder, and 5 g/L sodium chloride), incubated at 37° C. for 6 h to the mid-logarithmic stage, and then centrifuged at 8000 rpm for 5 min to collect the bacterial cells. The collected bacterial cells were suspended in fresh TSB medium at a bacterial suspension concentration of approximately 10^7 cells/mL. • 2.

[8] = tested on: Cow-derived fresh Leukocytes; test: as above; format: cell-based; conditions: 500 μM, 37° C., 6 h, mixed with S. aureus; FIG. 6
Protocol: as §3

[9] = tested on: Saccharomyces cerevisiae; test: as above; format: cell-based; conditions: 500 μM, 37° C., 6 h, mixed with S. aureus; FIG. 6
Protocol: as §3

[10] = tested on: B. subtilis, E. coli, S. aureus, and L. lactis; test: Fluorescence microscopy observation of FADA-labeled bacteria; format: cell-based; conditions: 300 μM, 37° C., 6 h; FIG. 1
Protocol: (§4) • 1. Staphylococcus aureus (Deposit number: ATCC 29213), Escherichia coli (Deposit number: ATCC 10798), Lactococcus lactis (Deposit number: ATCC 19257), and Bacillus subtilis (Deposit number: ATCC 6633). The four bacterial strains are the dominant bacteria or the important indicator and pathogenic bacteria in raw milk. • 2. […] Labeling method. […] Fluorescence microscopy observation method. […] 10 μL of bacterial suspension was added onto a slide to prepare an observation sample, which was observed using a 100× oil lens and FITC fluorescence channel. Brightfield images and fluorescence field images were recorded separately. • 5. Flow cytometry. […] The sample not incubated with FADA was used as the negative control.

[11] = tested on: L. lactis; test: Fluorescent labeling in presence of bacterial cell division inhibitor (flow cytometry); format: cell-based, Lactococcus lactis; conditions: 500 μM, 2 h, with bacterial cell division inhibitor, FIG. 8
Source text: (§5) • 1. Culture of bacterial strains. […] Fluorescent labeling with FADA. […] Fluorescent labeling with FADAA (Amino FADA).

[12] = tested on: four species of bacteria (B. subtilis, E. coli, S. aureus, L. lactis); test: Labeling efficiency by flow cytometry; format: cell-based
Protocol: as §4, with “Optimization of labeling conditions.” for “The sample not incubated with FADA was used as the negative control.”

[13] = tested on: E. coli; test: Fluorescent labeling in presence of bacterial cell division inhibitor (flow cytometry); format: cell-based, Escherichia coli; conditions: 500 μM, 2 h, with bacterial cell division inhibitor, FIG. 8
Source text: as §5

Row | Compound | Resistance to quinolone antibiotics (MIC), B. subtilis [1] | Inhibition of cell division of the four species of bacteria [2] | Resistance to quinolone antibiotics (MIC), E. coli [3] | Resistance to quinolone antibiotics (MIC), S. aureus [4] | Resistance to quinolone antibiotics (MIC), L. lactis [5] | bacterial viability after antibiotic treatment [6] | Fluorescent labeling of S. aureus in mixed samples [7] | Fluorescent labeling of somatic cells (cow leukocytes) in mixed sample [8] | Fluorescent labeling of yeast in mixed sample [9] | Fluorescent labeling of bacterial cells under fluorescence microscope [10] | labeling effect (labeling efficiency) [11] | labeling efficiency ([12]; 300 μM, 37° C., 6 h, FIG. 2) | labeling efficiency ([12]; 500 μM, 4 h, FIG. 3) | labeling effect (labeling efficiency) [13]
1 | O=C(O)c1cn(C2CC2)c2cc(N3CCNCC3)c(F)cc2c1=O [Ciprofloxacin, ciprofloxacin] | 1 µg/mL | efficient inhibition of cell division | 0.5 µg/mL | 1 µg/mL | 1 µg/mL |  |  |  |  |  |  |  |  | 
2 | C[C@H]1COc2c(N3CCN(C)CC3)c(F)cc3c(=O)c(C(=O)O)cn1c23 [Levofloxacin, levofloxacin] | 2 µg/mL |  | <0.25 µg/mL | <0.25 µg/mL | 0.5 µg/mL |  |  |  |  |  |  |  |  | 
3 | COc1c(N2C[C@@H]3CCCN[C@@H]3C2)c(F)cc2c(=O)c(C(=O)O)cn(C3CC3)c12 [Moxifloxacin, moxifloxacin] | 8 µg/mL |  | 1 µg/mL | 4 µg/mL | 2 µg/mL | 88.1% |  |  |  |  |  |  |  | 
4 | CCn1cc(C(=O)O)c(=O)c2ccc(C)nc21 [Nalidixic acid, nalidixic acid] | 128 µg/mL |  | 4 µg/mL | 64 µg/mL | >256 µg/mL |  |  |  |  |  |  |  |  | 
5 | Carboxyfluorescein-labeled amino-D-alanine [FADA] |  |  |  |  |  |  | fluorescently labeled | not labeled | not labeled | all cells in the field of view were found fluorescently labeled | 57.1% | > 98.5% | more than 98.5% | 81.6%
